US20230322767A1, “ARYL SUBSTITUTED PYRROLO-PYRIDINONES AND THERAPEUTIC USES THEREOF” (Bayer Aktiengesellschaft, priority 2020, published 2023)
pIC50: −log10 of the molar value. Read-outs that look alike come from different tables or passages of the source.

What was measured:
Assay type in all cases: biochemical
CSNK1A1 = CSNK1A1 (Homo sapiens (Human), UniProt P48729); experiment: CSNK1A1 Assay 2 (ADP-Glo, 1 μM ATP); conditions: median, read-out: CSNK1A1 Assay 2 IC50 [mol/l] (median)
How it was run: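 ADP-Glo luminescence, taken as ADP formed, reports activity against biotinylated phospho-peptide substrate biotin-Ahx-KRRRAL-pS-VASLPGL at 1 μM ATP.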

CSNK1D = CSNK1D (Homo sapiens (Human), UniProt P48730); experiment: CSNK1D Assay (ADP-Glo, 1 μM ATP); conditions: median, read-out: CSNK1D IC50 [mol/l] (median)
How it was run: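 Enzyme preincubated with compound 15 min at 22° C in 50 mM HEPES pH 7.5 buffer with 10 mM MgCl2, 1 mM DTT; kinase reaction run at 1 μM ATP with biotinylated peptide substrate. ADP formed was detected by ADP-Glo luminescence as the measure of activity.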

[1] = biological target: wild-type Epidermal Growth Factor Receptor (EGFR) (Homo sapiens (Human), UniProt P00533); experiment: WT-EGFR Kinase Assay (TR-FRET, 2 mM ATP)
How it was run: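 TR-FRET read-out of biotinylated peptide phosphorylation, taken as the 665/622 nm ratio after EDTA stop and 1 h detection at 22° C. Kinase: GST fusion of human EGFR aa R669–A1210, given a 15 min compound pre-binding step; reaction run at 2 mM ATP.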

[2] = read-out: EGFR Wildtyp 2 mM ATP IC50 [mol/l] (median), median or individual measurements

Chain of CSNK1D (P48730 whole entry): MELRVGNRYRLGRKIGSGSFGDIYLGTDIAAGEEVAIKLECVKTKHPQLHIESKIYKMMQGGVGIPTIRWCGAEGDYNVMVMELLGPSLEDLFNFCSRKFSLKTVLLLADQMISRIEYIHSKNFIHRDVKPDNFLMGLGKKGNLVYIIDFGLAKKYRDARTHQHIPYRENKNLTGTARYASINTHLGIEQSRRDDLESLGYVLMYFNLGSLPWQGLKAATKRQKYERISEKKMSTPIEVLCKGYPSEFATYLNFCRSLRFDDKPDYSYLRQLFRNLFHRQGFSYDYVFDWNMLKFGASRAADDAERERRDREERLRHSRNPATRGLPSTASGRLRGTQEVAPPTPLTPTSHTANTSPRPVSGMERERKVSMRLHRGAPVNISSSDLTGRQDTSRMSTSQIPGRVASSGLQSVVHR
Chain of wild-type Epidermal Growth Factor Receptor (EGFR) (P00533 669-1210): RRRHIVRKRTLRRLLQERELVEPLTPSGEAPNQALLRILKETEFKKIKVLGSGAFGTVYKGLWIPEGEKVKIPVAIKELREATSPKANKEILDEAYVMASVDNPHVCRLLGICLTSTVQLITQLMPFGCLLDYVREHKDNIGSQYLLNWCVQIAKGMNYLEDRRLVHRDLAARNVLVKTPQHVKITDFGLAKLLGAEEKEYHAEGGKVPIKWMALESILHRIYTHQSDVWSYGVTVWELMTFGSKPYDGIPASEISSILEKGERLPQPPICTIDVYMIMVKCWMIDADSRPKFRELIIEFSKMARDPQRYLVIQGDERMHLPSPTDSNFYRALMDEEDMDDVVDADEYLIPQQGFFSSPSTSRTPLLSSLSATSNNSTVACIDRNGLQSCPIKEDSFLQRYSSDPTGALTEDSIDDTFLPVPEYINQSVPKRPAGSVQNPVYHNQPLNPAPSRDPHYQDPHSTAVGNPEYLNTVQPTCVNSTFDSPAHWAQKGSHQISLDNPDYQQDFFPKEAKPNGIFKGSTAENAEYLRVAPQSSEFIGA
Chain of CSNK1A1 (P48729 whole entry): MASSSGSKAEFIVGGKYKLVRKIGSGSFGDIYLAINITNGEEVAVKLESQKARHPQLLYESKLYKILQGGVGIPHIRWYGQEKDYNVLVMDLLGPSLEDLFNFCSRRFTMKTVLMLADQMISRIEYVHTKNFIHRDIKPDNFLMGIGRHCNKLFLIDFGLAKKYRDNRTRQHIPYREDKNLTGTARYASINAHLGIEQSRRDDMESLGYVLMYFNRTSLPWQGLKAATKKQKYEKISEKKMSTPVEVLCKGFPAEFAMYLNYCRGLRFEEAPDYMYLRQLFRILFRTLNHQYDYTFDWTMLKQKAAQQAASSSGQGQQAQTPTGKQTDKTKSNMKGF

For `Cn1ccc2[nH]c(-c3ccnc(NC(=O)Cc4ccc(F)cc4)c3)c(-c3ccccn3)c2c1=O` [Example 146, 2-(4-fluorophenyl)-N-{4-[5-methyl-4-oxo-3-(pyridin-2-yl)-4,5-dihydro-1H-pyrrolo[3,2-c]pyridin-2-yl]pyridin-2-yl}acetamide], the pIC50 (CSNK1A1) was 8.48, the pIC50 (CSNK1D) was 8.36 and the pIC50 [1, 2] was less than 4.70.

Compound `CC(C(=O)Nc1cc(-c2[nH]c3c(c2-c2ccccc2)C(=O)N(C)CC3)ccn1)c1ccncc1` (stereo not drawn) [Example 154, N-[4-(5-methyl-4-oxo-3-phenyl-4,5,6,7-tetrahydro-1H-pyrrolo[3,2-c]pyridin-2-yl)pyridin-2-yl]-2-(pyridin-4-yl)propanamide] has a pIC50 (CSNK1A1) of 8.29, a pIC50 (CSNK1D) of 8.22 and a pIC50 ([1]; EGFR Wildtyp 2 mM ATP IC50 [mol/l] (median), median or individual measurements) of less than 4.70.

With `O=C(Cc1ccc(F)cc1)Nc1cc(-c2[nH]c3ccn(C4CC4)c(=O)c3c2-c2ccccc2)ccn1` [Example 159, N-[4-(5-cyclopropyl-4-oxo-3-phenyl-4,5-dihydro-1H-pyrrolo[3,2-c]pyridin-2-yl)pyridin-2-yl]-2-(4-fluorophenyl)acetamide] the pIC50 (CSNK1A1) was 9.02, the pIC50 (CSNK1D) was 8.80 and the pIC50 [1, 2] was less than 4.70.
